The results in this text go back to patent US9604998B2, “Inhibitors of the renal outer medullary potassium channel” (MERCK SHARP & DOHME CORP., priority 2013, dated 2017).

One assay has as its target hROMK (hKir1.1) (Homo sapiens (Human), UniProt P48048). Nature of the assay: Thallium Flux Assay (ROMK channel functional thallium flux, FLIPR-Tetra). In kind it is cell-based.
The next assay deals with Kir1.1 (ROMK1) (Homo sapiens (Human), UniProt P48048). Description: Electrophysiology Assay (whole cell voltage clamp, IonWorks Quattro). In kind it is cell-based. Conditions: block during voltage step to 0 mV. A digest of the protocol:
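CHO cells stably expressing the channel, induced overnight with 1 mM sodium butyrate, were recorded in amphotericin-perforated patch mode. The test pulse was a 100 ms step to 0 mV from −70 mV, then a −70 to +70 mV ramp, applied before and after a 6 min compound incubation. Current amplitudes were compared.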
(In general: In patch-clamp work, channel activity is measured electrically.)

The mark [1] stands for this setting: HEK293 cells stably expressing hROMK (hKir1.1), read-out: Thallium Flux IC50.
[2] abbreviates: Chinese hamster ovary cells stably expressing Kir1.1, read-out: Electrophysiology IC50.
Where [3] appears, read: Electrophysiology IC50, Chinese hamster ovary cells stably expressing Kir1.1.
[4] abbreviates: Thallium Flux IC50, HEK293 cells stably expressing hROMK (hKir1.1).

Structures are written as SMILES. Structures can show the parent of a compound that is named as a salt. Where two headings read alike, the source gives them in different places.

Sequence of hROMK (hKir1.1) (P48048 whole entry): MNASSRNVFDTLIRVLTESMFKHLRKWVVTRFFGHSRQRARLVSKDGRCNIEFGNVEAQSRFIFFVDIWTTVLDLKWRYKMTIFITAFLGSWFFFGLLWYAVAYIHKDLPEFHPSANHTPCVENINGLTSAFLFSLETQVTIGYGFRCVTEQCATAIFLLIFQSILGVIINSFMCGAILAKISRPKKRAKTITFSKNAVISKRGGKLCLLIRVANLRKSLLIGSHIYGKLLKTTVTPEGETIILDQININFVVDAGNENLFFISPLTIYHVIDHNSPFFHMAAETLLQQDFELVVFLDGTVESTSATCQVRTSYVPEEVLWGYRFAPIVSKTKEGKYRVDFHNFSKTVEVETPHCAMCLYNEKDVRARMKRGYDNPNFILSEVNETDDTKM
Sequence of Kir1.1 (ROMK1) (P48048 whole entry, species assumed): as the sequence (P48048 whole entry) above

A word on the IC50: it is the concentration that gives 50% inhibition. Consider `Cc1c([C@H]2CN3CCN(CCc4ccc5c(c4)COC5=O)C[C@H]3CN2)ccc(F)c1C#N` [Example 104], for which the results for the concentration for half-maximal inhibition (IC50) on hROMK (hKir1.1) (setting [1]) and on Kir1.1 (ROMK1) (setting [2]) were 110 nM and 400 nM, respectively.
On the same counts, the results for `Cc1c([C@@H]2CN3CCN(CC(O)c4ccc5c(c4)C[C@H](C)OC5=O)C[C@H]3CO2)ccc2c1COC2=O` (single isomer, unassigned) [Example 44] are 270 nM and 130 nM.
For the compound `Cc1cc(-n2cnnn2)ncc1C(O)CN1CCN2C[C@@H](c3ccc(F)c(C#N)c3C)OC[C@@H]2C1` (single isomer, unassigned) [Example 19], the IC50 turned out to be 440 nM at hROMK (hKir1.1) (setting [1]) and 260 nM at Kir1.1 (ROMK1) (setting [3]).
Consider `COc1cc([C@H]2CN3CCN(C[C@H](O)c4ccc5c(c4C)COC5=O)C[C@@H]3CO2)ccc1C#N` [Example 1, 4-{(3S,9aR)-8-[(2R)-2-hydroxy-2-(4-methyl-1-oxo-1,3-dihydro-2-benzofuran-5-yl)ethyl]octahydropyrazino[2,1-c][1,4]oxazin-3-yl}-2-methoxybenzonitrile], for which the IC50 is 220 nM on hROMK (hKir1.1) (setting [1]) and 110 nM on Kir1.1 (ROMK1) (setting [2]).
For the compound `COc1cc([C@@H]2CN3CCN(CCc4ccc5c(c4C)COC5=O)C[C@@H]3CO2)ccc1C#N` [Example 76], the IC50 on hROMK (hKir1.1) (setting [1]) came to 440 nM; on Kir1.1 (ROMK1) (setting [2]), 90 nM.
The like results for `Cc1c([C@@H](O)CN2CCN3C[C@@H](c4ccc(C#N)c(F)c4)OC[C@H]3C2)ccc2c1COC2=O` [Example 29, (3R,9aR)-3-(4-cyano-3-fluorophenyl)-8-[(2R)-2-hydroxy-2-(4-methyl-1-oxo-1,3-dihydro-2-benzofuran-5-yl)ethyl]octahydropyrazino[2,1-c][1,4]oxazin-8-ium chloride] were, in that order, 490 nM and 80 nM.
With `Cc1c([C@@H]2CN3CCN(CC(O)c4ccc5c(c4)C[C@@H](C)OC5=O)C[C@H]3CO2)ccc2c1COC2=O` (single isomer, unassigned) [Example 46], the half-inhibitory concentration (IC50) came to 280 nM on hROMK (hKir1.1) (setting [1]) and 110 nM at Kir1.1 (ROMK1) (setting [2]).
The like results for `Cc1c([C@@H]2CN3CCN(CC(O)c4ccc(-n5cnnn5)nc4)C[C@H]3CO2)ccc(F)c1C#N` (single isomer, unassigned) [Example 16] were, in that order, 560 nM and 80 nM.
Turning to `COc1cc(C(O)CN2CCN3C[C@@H](c4ccc5c(c4C)COC5=O)OC[C@@H]3C2)c(F)cc1C#N` (single isomer, unassigned) [Example 37], the IC50 turned out to be 470 nM at hROMK (hKir1.1) (setting [1]) and 110 nM at Kir1.1 (ROMK1) (setting [2]).
In the case of `Cc1c([C@H]2CN3CCN(CCc4ccc(-n5cnnn5)nc4)C[C@H]3CO2)ccc(F)c1C#N` [Example 93], the IC50 on hROMK (hKir1.1) (setting [1]) and at Kir1.1 (ROMK1) (setting [2]) was 80 nM throughout.
Turning to `COc1cc(CCN2CCN3C[C@@H](c4ccc5c(c4C)COC5=O)OC[C@@H]3C2)ccc1C#N` [Example 56, 2-methoxy-4-(2-((3R,9aS)-3-(4-methyl-1-oxo-1,3-dihydroisobenzofuran-5-yl)hexahydropyrazino[2,1-c][1,4]oxazin-8(1H)-yl)ethyl)benzonitrile], the IC50 came out at 40 nM on hROMK (hKir1.1) (setting [1]) and 70 nM at Kir1.1 (ROMK1) (setting [2]).
Regarding `Cc1cc2c(cc1C(O)CN1CCN3C[C@@H](c4ccc(F)c(C#N)c4C)OC[C@@H]3C1)COC2=O` (single isomer, unassigned) [Example 24, trifluoroacetate], the IC50 against hROMK (hKir1.1) (setting [4]) is 450 nM; at Kir1.1 (ROMK1) (setting [3]) it was 240 nM.
Consider `Cc1cc(-n2cnnn2)ncc1C(O)CN1CCN2C[C@@H](c3ccc(F)c(C#N)c3C)OC[C@@H]2C1` (single isomer, unassigned) [Example 20], for which the figures for the IC50 on hROMK (hKir1.1) (setting [1]) and against Kir1.1 (ROMK1) (setting [3]) were 300 nM and 240 nM, respectively.
Regarding `Cc1cc2c(cc1C(O)CN1CCN3C[C@H](c4ccc(F)c(C#N)c4C)OC[C@@H]3C1)COC2=O` (single isomer, unassigned) [Example 26, trifluoroacetate], the IC50 against hROMK (hKir1.1) (setting [4]) stood at 250 nM; at Kir1.1 (ROMK1) (setting [3]), 220 nM.
On to `Cc1c(CCN2CCN3C[C@@H](c4ccc5c(c4)CCOC5=O)OC[C@@H]3C2)ccc2c1COC2=O` [Example 73], for which the IC50 worked out at 570 nM at hROMK (hKir1.1) (setting [1]) and 300 nM at Kir1.1 (ROMK1) (setting [2]).
As for `Cc1c([C@@H]2CN3CCN(CCc4ccc5c(c4)C[C@H](C)OC5=O)C[C@H]3CO2)ccc(F)c1C#N` [Example 88], the IC50 at hROMK (hKir1.1) (setting [1]) came out at 190 nM; at Kir1.1 (ROMK1) (setting [2]), 50 nM.
The like results for `Cc1c([C@@H]2CN3CCN(CCc4ccc5c(c4)COC5=O)C[C@H]3CN2)ccc(F)c1C#N` [Example 103] were, in that order, 140 nM and 60 nM.
Turning to `Cc1c([C@@H]2CN3CCN(CC(O)c4cc(F)c(C#N)c(F)c4)C[C@H]3CO2)ccc2c1COC2=O` (stereo partly drawn) [Example 38, (3R,9aS)-8-[2-(4-cyano-3,5-difluorophenyl)-2-hydroxyethyl]-3-(4-methyl-1-oxo-1,3-dihydro-2-benzofuran-5-yl)octahydropyrazino[2,1-c][1,4]oxazin-5-ium chloride], the IC50 was determined as 440 nM on hROMK (hKir1.1) (setting [1]) and 120 nM on Kir1.1 (ROMK1) (setting [2]).
The like results for `COc1cc(CCN2CCN3C[C@@H](c4ccc5c(c4C)COC5=O)NC[C@@H]3C2)ccc1C#N` [Example 101, 2-Methoxy-4-(2-((7R,9aR)-7-(4-methyl-1-oxo-1,3-dihydroisobenzofuran-5-yl)hexahydro-1H-pyrazino[1,2-a]pyrazin-2(6H)-yl)ethyl)benzonitrile] were, in that order, 210 nM and 100 nM.
